# Experimental data from US20100010035A1, “Novel Dual Action Receptors Antagonists (Dara) at the Ati and Eta Receptors” (priority 2006, published 2010).
# How the values were obtained:
# [1] = target: T1, human AT1 receptor (Homo sapiens, UniProt P30556); assay: AT1 functional assay (FLIPR Ca efflux, Angiotensin-II at EC80); assay type: cell-based; conditions: CHO cells over-expressing full length human AT1 receptor; Angiotensin-II as agonist at EC80
# T1 construct: CHO cell stably over-expressing the full length human AT1 receptor; expressed in transfected cells
# T1 sequence (P30556 1-359): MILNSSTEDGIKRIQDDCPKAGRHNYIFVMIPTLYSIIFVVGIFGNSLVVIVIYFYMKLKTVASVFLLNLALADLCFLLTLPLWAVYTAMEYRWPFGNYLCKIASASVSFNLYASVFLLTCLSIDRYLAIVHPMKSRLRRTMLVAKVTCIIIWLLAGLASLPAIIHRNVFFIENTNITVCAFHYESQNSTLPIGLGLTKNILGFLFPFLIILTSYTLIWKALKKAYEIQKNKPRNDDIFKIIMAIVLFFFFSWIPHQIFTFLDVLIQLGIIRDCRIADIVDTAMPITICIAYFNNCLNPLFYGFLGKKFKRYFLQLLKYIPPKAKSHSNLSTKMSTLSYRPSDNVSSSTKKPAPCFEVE
# Protocol: CHO cell stably over-expressing the full length human AT1 receptor was cultured in DMEM (Gibco) with 10% FCS (Hyclone) and selection maintained using 0.5 mg/ml G418 (Gibco). Cell at 70% confluence were trypsnised, resuspended in media and counted. 20,000 cells/well were plated into black polystyrene 384-well plates with transparent bottoms and allowed 16 hours to adhere. The cells were loaded with Flou-4 (TEFLABS, USA) dye in HBSS (Gibco) for 1 hour and then washed in HBSS and 0.6 μl of diluted compounds in DMSO added to the cells in 30 μd of HBSS in Multimek liquid handling system (Beckman, USA). The cells were then placed in the Fluorometric Imaging Plate Readers (FLIPR, Molecular Devices, USA) and 20 μl of Angiotensin-II peptide as agonist (at EC80) in HBSS was added in the instrument.
# (§1) The Ca efflux was followed for 2 mins and the maximum height of the peak was measured at various compound concentrations and plotted according to the equation
# (§2) and IC50 estimated wherein A is the bottom plateau of the curve i.e. the final minimum y value B is the top of the plateau of the curve i.e. the final maximum y value C is the x value at the middle of the curve. This represents the log EC50 value when A+B=100 D is the slope factor. x is the original known x values. y is the original known y values.
# [2] = target: T2, human ETA receptor (Homo sapiens, UniProt P25101); assay: ETA functional assay (FLIPR Ca efflux, Endothelin-1 at EC80); assay type: cell-based; conditions: CHO cells over-expressing full length human ETA receptor; Endothelin-1 as agonist at EC80
# T2 construct: CHO cell stably over-expressing the full length human ETA receptor; expressed in transfected cells
# T2 sequence (P25101 21-427): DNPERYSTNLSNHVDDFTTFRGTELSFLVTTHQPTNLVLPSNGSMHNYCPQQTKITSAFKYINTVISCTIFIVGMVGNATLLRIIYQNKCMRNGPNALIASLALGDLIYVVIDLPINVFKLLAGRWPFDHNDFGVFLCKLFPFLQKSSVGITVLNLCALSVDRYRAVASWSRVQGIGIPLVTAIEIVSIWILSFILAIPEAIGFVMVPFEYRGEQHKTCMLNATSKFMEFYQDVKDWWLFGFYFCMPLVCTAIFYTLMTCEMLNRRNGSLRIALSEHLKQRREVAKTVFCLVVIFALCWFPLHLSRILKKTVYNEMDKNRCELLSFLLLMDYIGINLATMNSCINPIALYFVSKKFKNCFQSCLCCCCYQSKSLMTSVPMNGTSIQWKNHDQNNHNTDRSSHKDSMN
# Protocol: CHO cell stably over-expressing the full length human ETA receptor was cultured in DMEM (Gibco) with 10% FCS (Hyclone) and selection maintained using 0.5 mg/ml G418 (Gibco). Cell at 70% confluence were trypsnised, resuspended in media and counted. 20,000 cells/well were plated into black polystyrene 384-well plates with transparent bottoms and allowed 16 hours to adhere. The cells were loaded with Flou-4 (TEFLABS, USA) dye in BSS (Gibco) for 1 hour and then washed in HBSS and 0.6 μl of diluted compounds in DMSO added to the cells in 30 μl of HBSS in Multimek liquid handling system (Beckman, USA). The cells were then placed in the Fluorometric Imaging Plate Readers (FLIPR, Molecular Devices, USA) and 20 μl of Endothelin-1 peptide as agonist in HBSS (at EC80) was added in the instrument.
# as §1, §2
IC50 [1],IC50 [2],SMILES
17.2 nM,1040 nM,"CCc1nc(C)cc2c1c(CC)nn2Cc1ccc(-c2cc(C)sc2S(=O)(=O)Nc2noc(C)c2C)c(COC)c1 [Example 38, 3-[4-(3,4-Diethyl-6-methyl-pyrazolo[4,3-c]pyridin-1-ylmethyl)-2-methoxymethyl-phenyl]-5-methyl-thiophene-2-sulfonic acid (4,5-dimethyl-isoxazol-3-yl)-amide]"
25.1 nM,781 nM,"CCOc1cc(=O)n(Cc2ccc(-c3cc(C)sc3S(=O)(=O)Nc3noc(C)c3C)c(C)c2)c2cc(CC)nc(CC)c12 [Example 39, 3-[4-(4-Ethoxy-5,7-diethyl-2-oxo-2H-[1,6]naphthyridin-1-ylmethyl)-2-methyl-phenyl]-5-methyl-thiophene-2-sulfonic acid (4,5-dimethyl-isoxazol-3-yl)-amide]"
